In this assay the test system is genotype A, "Long" strain RSV. Briefly: RSV-A in vitro cytoprotection assay in HEp-2 cells (ATPlite readout of cell viability). Type of assay: cell-based, Human respiratory syncytial virus. The settings on record: human respiratory syncytial virus. The text has this: RSV is a single stranded negative sense RNA virus that causes respiratory tract infections which can be dangerous to infants, the elderly, and immunosuppressed individuals. Currently there is no vaccine, and therapeutic options are both costly and of limited effectiveness. These approved treatments are Ribavirin, and Palivizumab/Synagis (a monoclonal antibody). RSV has two genotypes, A and B, which differ primarily in the structure of the virus' surface “G” attachment protein. Our current primary screen focuses on RSV-A and uses an in vitro cytoprotection assay where compounds are added in 2-fold dilutions to cells which are then subjected to fully replicative viral particles. Cell viability is measured several days later along with separate measurements of compound cytotoxicity. This report focuses on the results of our most recent screening of compounds.
HEp-2 cells, (originally derived from tumors grown in irradiated-cortisonised weanling rats that had been injected with epidermoid carcinoma tissue from a person's larynx, but later found to be indistinguishable from HeLa cells by PCR DNA analysis), were used for the culturing of genotype A, “Long” strain RSV. Flasks were inoculated with RSV and viral stocks were collected once cytopathic effect (CPE) was greater than 90%. Viral stocks in 25% sucrose media were snap frozen using liquid nitrogen to increase viral stability. Viral stock titers were quantified by tissue culture infectious dose 50% (TCID50) using 8,000 cells per well and 3-fold viral dilutions across a 96-well plate, cultured for 4 days.
Following extensive parameter testing, the final assay is run as follows: HEp-2 cells are seeded into the inner 60 wells of a 96-well plate at 8,000 cells per well in a volume of 50 μL using Growth Media (DMEM without phenol red, 1% L-Glut, 1% Penn/Strep, 1% nonessential amino acids, 10% FBS). 2-Fold serial dilutions of control and test compounds are added to the wells in duplicate in a total volume of 25 μL. Viral stock is then added to the wells in a volume of 25 μL, bringing the total volume of each well to 100 μL. Each 96-well plate has a control column of 6 wells with cells and virus but no compound (negative control, max CPE), a column with cells but no compound or virus (positive control, minimum CPE), and a column with no cells or virus or compound (background plate/reagent control). The control wells with cells but no virus are given an additional 25 uL of growth media containing an equal quantity of sucrose as those wells receiving the viral stock in order to keep consistent in media and volume conditions. The outer wells of the plate are filled with 125 μL of growth media to act as a thermal and evaporative moat around the test wells. Following a 4-day incubation period, the plates are read using ATPlite (50 uL added per well), which quantifies the amount of ATP (a measure of cell health) present in each well. Assay plates are read using the Envision luminometer. In parallel, cytotoxicity is examined on an additional 96-well plate treated in an identical manner, but substituting the 25 μL of viral stock for 25 μL of growth media. […] EC50 ranges are as follows: A <0.4 μM; B 0.4-0.8 μM; C >0.8 μM.
A general note: Cellular ATP, detected with luciferase, serves as a proxy for viable cell number.

The mark [1] stands for this setting: HEp-2, HEp-2 cells, genotype A “Long” strain RSV, cytoprotection, read-out: Human RSV-A (“Long” strain) EC50.

Where two headings read alike, the source gives them in different places.

For the molecule `Cc1cccc(F)c1NC(=O)c1cc2c(s1)-c1ccccc1N(C(=O)c1cccc(-n3cc(S(C)(=O)=O)cn3)n1)CC2` [Example 144], the EC50 under setting [1] was above 800 nM.
As to `Cc1cccc(F)c1NC(=O)c1cc2c(s1)-c1ccc(F)cc1N(C(=O)c1cccc(-c3c[nH]c4ncc(F)cc34)n1)CC2` [Example 169], under setting [1], the concentration giving a half-maximal response (EC50) is below 400 nM.
The same measure, in the same setting: next, `Cc1cccc(F)c1NC(=O)c1cc2c(s1)-c1ccccc1N(C(=O)c1cccc(N(C)CC3CCCO3)n1)CC2` (stereo not shown) [Example 461]: below 400 nM.
In turn, `O=C(Nc1ccccc1F)N[C@H]1N=C(c2ccccc2)c2ccccc2NC1=O` [RSV-604, reference compound] yielded an EC50 (HEp-2) of around 2400 nM.
For the molecule `O=C(NCc1ccccc1)c1cc2c(s1)-c1ccccc1N(C(=O)c1cccc(N3CCOc4ccccc4C3)n1)CC2` [Example 305], the 50% effective concentration (EC50) under setting [1] lay in the range of 400 to 800 nM.
On the same count and under the same terms, under `Cc1cccc(F)c1NC(=O)c1cc2c(s1)-c1ccccc1N(C(=O)c1cccc(NC[C@@H]3CCCO3)n1)CC2` [Example 459] stands below 400 nM.
As to `Cc1cccc(F)c1NC(=O)c1cc2c(s1)-c1ccccc1N(C(=O)c1cccc(-c3cncn3-c3ccccc3F)n1)CC2` [Example 205], the half-maximal effective concentration (EC50) under setting [1] was above 800 nM.
On the same count and under the same terms, under `Cc1cnc2[nH]cc(-c3cccc(C(=O)N4CCc5cc(C(=O)Nc6c(C)cccc6F)sc5-c5ccccc54)n3)c2c1` [Example 245] stands below 400 nM.
Same read-out and setting: next, `Cc1cccc(F)c1NC(=O)c1cc2c(s1)-c1ccccc1N(C(=O)c1cccc(-c3cnoc3C)n1)CC2` [Example 262]: above 800 nM; `Cc1cccc(F)c1NC(=O)c1cc2c(s1)-c1ccccc1N(C(=O)c1cccc(N(CCS(C)(=O)=O)C3CC3)n1)CC2` [Example 463]: 400 to 800 nM.
For the molecule `COc1ccc(-c2cccc(C(=O)N3CCc4cc(C(=O)Nc5ccccc5)sc4-c4ccccc43)n2)cn1` [Example 168], the concentration giving a half-maximal response (EC50) under setting [1] is above 800 nM.
The same measure, in the same setting: next, `Cc1cccc(F)c1NC(=O)c1cc2c(s1)-c1ccccc1N(C(=O)c1cccc(N3CCCN(S(=O)(=O)C4(C)CC4)CC3)n1)CC2` [Example 383]: below 400 nM.
On the same count and under the same terms, next, `O=C(N[C@@H]1CCOC1)c1cc2c(s1)-c1ccccc1N(C(=O)c1cccc(N3CCOc4ccccc4C3)n1)CC2` [Example 309]: below 400 nM.
For the molecule `COc1ccccc1C(C)(C)Nc1cccc(C(=O)N2CCc3cc(C(=O)NC4CC4)sc3-c3ccccc32)n1` [Example 322], the EC50 under setting [1] is above 800 nM.
As to `Cc1cccc(F)c1NC(=O)c1cc2c(s1)-c1ccccc1N(C(=O)c1cccc(N(C)Cc3cccc4ccccc34)n1)CC2` [Example 353], the EC50 under setting [1] is above 800 nM.
On the same count and under the same terms, next, `COc1ccn(-c2cccc(C(=O)N3CCc4cc(C(=O)Nc5c(C)cccc5F)sc4-c4ccccc43)n2)c(=O)c1` [Example 415]: above 800 nM; `O=C(NC1CC1)c1cc2c(s1)-c1ccccc1N(C(=O)c1cccc(-c3nncn3CC3CCOCC3)n1)CC2` [Example 127]: above 800 nM.
The same measure, in the same setting: next, `CCn1nccc1-c1cccc(C(=O)N2CCc3cc(C(=O)Nc4c(C)cccc4F)sc3-c3ccccc32)n1` [Example 238]: below 400 nM.
Same read-out and setting: under `Cc1cccc(F)c1NC(=O)c1cc2c(s1)-c1ccccc1N(C(=O)c1cccc(-c3c[nH]c4ccccc34)n1)CC2` [Example 207] stands below 400 nM; under `O=C(NC1CC1)c1cc2c(s1)-c1ccccc1N(C(=O)c1cccc(N3CCOCC(C(=O)N4CCOCC4)C3)n1)CC2` (stereo not shown) [Example 285], above 800 nM; under `O=C(NC1CC1)c1cc2c(s1)-c1ccccc1N(C(=O)c1cccc(N3CCC4(CC3)CC4)n1)CC2` [Example 25], 400 to 800 nM.
In the case of `O=C(NC1CCOCC1)c1cc2c(s1)-c1ccccc1N(C(=O)c1cccc(N3CCOc4ccccc4C3)n1)CC2` [Example 307], under setting [1], the EC50 is below 400 nM.
Still for that read-out and setting: next, `COc1ccc(-c2cccc(C(=O)N3CCc4ccc(C(=O)NC5CC5)cc4-c4ccccc43)n2)cn1` [Example 105]: above 800 nM.
With `COc1ccccc1[C@H](C)Nc1cccc(C(=O)N2CCc3cc(C(=O)Nc4c(C)cccc4F)sc3-c3ccccc32)n1` [Example 347], under setting [1], the EC50 was above 800 nM.
The same measure, in the same setting: under `COC[C@@H]1CCCN1c1cccc(C(=O)N2CCc3cc(C(=O)Nc4c(C)cccc4F)sc3-c3ccccc32)n1` [Example 505] stands below 400 nM.
On the same count and under the same terms, next, `O=C(Nc1cc2c(s1)-c1ccccc1N(C(=O)c1cccc(N3CCOc4ccccc4C3)n1)CC2)c1ccccc1` [Example 313]: 400 to 800 nM; `COCCN(c1ccccc1)c1cccc(C(=O)N2CCc3cc(C(=O)Nc4c(C)cccc4F)sc3-c3ccccc32)n1` [Example 115]: below 400 nM; `COCCN(CC(C)C)c1cccc(C(=O)N2CCc3cc(C(=O)Nc4c(C)cccc4F)sc3-c3ccccc32)n1` [Example 118]: below 400 nM.
Still for that read-out and setting: next, `Cc1cccc(F)c1NC(=O)c1cc2c(s1)-c1ccccc1N(C(=O)c1cccc(N3Cc4ccccc4OC(C)(C)C3)n1)CC2` [Example 332]: below 400 nM; `Cc1cccc(F)c1NC(=O)c1cc2c(s1)-c1ccccc1N(C(=O)c1cccc(N(C)CC3Cc4ccccc4O3)n1)CC2` (stereo not shown) [Example 117]: below 400 nM; `CS(=O)(=O)N1CCCc2cc(C(=O)N3CCc4cc(C(=O)NC5CC5)sc4-c4ccccc43)ccc21` [Example 9]: above 800 nM.
For `Cc1cccc(F)c1NC(=O)c1cc2c(s1)-c1ccccc1N(C(=O)c1cccc(NCC3(C)CCCO3)n1)CC2` (stereo not shown) [Example 361], under setting [1], the half-maximal effective concentration (EC50) is above 800 nM.
Same read-out and setting: next, `Cc1cccc(F)c1NC(=O)c1cc2c(s1)-c1ccccc1N(C(=O)c1cccc(N3CCCOCC3)n1)CC2` [Example 323]: below 400 nM; `O=C(NC1CC1)c1cc2c(s1)-c1ccccc1N(C(=O)c1cccc(-c3cncc4ccccc34)n1)CC2` [Example 153]: above 800 nM; `Cc1cccc(F)c1NC(=O)c1cc2c(s1)-c1cccc(F)c1N(C(=O)c1cccc(N3CCOc4ccccc4C3)n1)CC2` [Example 504]: above 800 nM.
The same measure, in the same setting: under `Cc1cccc(F)c1NC(=O)c1cc2c(s1)-c1ccccc1N(C(=O)c1cccc(N3C[C@@H](O)C[C@@H]3C)n1)CC2` [Example 495] stands below 400 nM; under `O=C(NC1CC1)c1cc2c(s1)-c1ccccc1N(C(=O)c1cccc(-c3cccnc3N3CCCOCC3)n1)CC2` [Example 88], 400 to 800 nM; under `COc1ccc(-c2cccc(C(=O)N3CCc4cc(C(=O)NC5CC5)sc4-c4ccccc43)c2)cc1` [Example 5], 400 to 800 nM.
Still for that read-out and setting: under `Cc1ccncc1-c1cccc(C(=O)N2CCc3cc(C(=O)NC4CC4)sc3-c3ccccc32)n1` [Example 156] stands above 800 nM.
As to `O=C(NC1CC1)c1cc2c(s1)-c1ccccc1N(C(=O)c1ccc(F)c(N3CCOCC3)n1)CC2` [Example 44], the EC50 under setting [1] fell in the range of 400 to 800 nM.
Consider `Cc1cccc(F)c1NC(=O)c1cc2c(s1)-c1ccccc1N(C(=O)c1cccc(N3CC(S(C)(=O)=O)C3)n1)CC2` [Example 441], for which the EC50 under setting [1] was above 800 nM.
Same read-out and setting: next, `COc1cccc(CN(C)c2cccc(C(=O)N3CCc4cc(C(=O)Nc5c(C)cccc5F)sc4-c4ccccc43)n2)c1` [Example 343]: below 400 nM; `Cc1cccc(F)c1NC(=O)c1cc2c(s1)-c1ccccc1N(C(=O)c1cccc(NCC3OCc4ccccc43)n1)CC2` (stereo not shown) [Example 336]: below 400 nM.
Same read-out and setting: next, `COCCOc1ccc(-c2cccc(C(=O)N3CCc4cc(C(=O)NC5CC5)sc4-c4ccccc43)n2)cn1` [Example 74]: 400 to 800 nM; `CC(=O)N1CCN(c2cccc(C(=O)N3CCc4cc(C(=O)NC5CC5)sc4-c4ccccc43)n2)CC1` [Example 20]: 400 to 800 nM; `Cc1cccc(F)c1NC(=O)c1cc2c(s1)-c1ccc(F)cc1N(C(=O)c1cccc(N(C)C[C@H]3CCCO3)n1)CC2` [Example 491]: below 400 nM.
The same measure, in the same setting: under `O=C(NC1CC1)c1cc2c(s1)-c1ccccc1N(C(=O)c1cccc(N3CCOCC4(CCOCC4)C3)n1)CC2` [Example 284] stands below 400 nM; under `Cc1cccc(F)c1NC(=O)c1cc2c(s1)-c1ccccc1N(C(=O)c1cccc(N3CCC[C@@H]3C)n1)CC2` [Example 479], below 400 nM; under `Cc1cccc(F)c1NC(=O)c1cc2c(s1)-c1ccccc1N(C(=O)c1cccc(N3C(=O)OC[C@@H]3c3ccccc3)n1)CC2` [Example 425], below 400 nM.

Usually EC50 stands for the concentration giving half of the maximal effect.

The record behind these values is patent US10759816B2, “Heterocyclic compounds as RSV inhibitors” (Enanta Pharmaceuticals, Inc., priority 2016, dated 2020).
